Assay results as given in publication PMC9866191, “Novel 9-Benzylaminoacridine Derivatives as Dual Inhibitors of Phosphodiesterase 5 and Topoisomerase II for the Treatment of Colon Cancer” (Molecules, 2023).

Tests used:
Format in all cases: cell-based
[1] = system: panel of 60 human tumor cell lines; assay: NCI 60-cell line one-dose screen (mean); settings: mean of the 60 cell lines, single dose 10^−5 M, read-out: Mean % Growth Inhibition
Description: (§1) The newly synthesized compounds were screened for their in vitro anticancer activity at the Developmental Therapeutic Program (DTP) of the National Cancer Institute (NCI). The screening involved a panel of 60 human tumor cell lines consisting of 9 tissue types to screen for potential anti-cancer agents. The primary screening of submitted compounds was performed by testing a single dose (10^−5 M) in the full NCI-60 panel. The detailed % inhibition by the tested compounds against the 60 cell lines is shown in Tables S1–S3 in the Supporting Information.

OVCAR-4 = assay: NCI-60 one-dose screen; settings: Homo sapiens; OVCAR-4, Ovarian Cancer panel; single dose 10^−5 M; read-out: Growth inhibition %
Description: as §1

SK-OV-3 = assay: NCI-60 one-dose screen; settings: Homo sapiens; SK-OV-3, Ovarian Cancer panel; single dose 10^−5 M; read-out: Growth inhibition %
Description: as §1

SN12C = assay: NCI-60 one-dose screen; settings: Homo sapiens, Renal Cancer panel, single dose 10^−5 M, read-out: Growth inhibition %
Description: as §1

NCI/ADR-RES = assay: NCI-60 one-dose screen; settings: Homo sapiens, Ovarian Cancer panel, single dose 10^−5 M, read-out: Growth inhibition %
Description: as §1

MDA-MB-435 = assay: NCI-60 one-dose screen; settings: Homo sapiens; MDA-MB-435, Melanoma panel; single dose 10^−5 M; read-out: Growth inhibition %
Description: as §1

OVCAR-3 = assay: NCI-60 one-dose screen; settings: Homo sapiens; OVCAR-3, Ovarian Cancer panel; single dose 10^−5 M; read-out: Growth inhibition %
Description: as §1

K-562 = assay: NCI-60 one-dose screen; settings: Homo sapiens, K562; K-562, Leukemia panel; single dose 10^−5 M; read-out: Growth inhibition %
Description: as §1

CAKI-1 = assay: NCI-60 one-dose screen; settings: Homo sapiens; CAKI-1, Renal Cancer panel; single dose 10^−5 M; read-out: Growth inhibition %
Description: as §1

OVCAR-5 = assay: NCI-60 one-dose screen; settings: Homo sapiens; OVCAR-5, Ovarian Cancer panel; single dose 10^−5 M; read-out: Growth inhibition %
Description: as §1

HOP-92 = assay: NCI-60 one-dose screen; settings: Homo sapiens; HOP-92, Non-small cell lung panel; single dose 10^−5 M; read-out: Growth inhibition %
Description: as §1

NCI-H23 = assay: NCI-60 one-dose screen; settings: Homo sapiens; NCI-H23, Non-small cell lung panel; single dose 10^−5 M; read-out: Growth inhibition %
Description: as §1

A549/ATCC = assay: NCI-60 one-dose screen; settings: Homo sapiens, Non-small cell lung panel, single dose 10^−5 M, read-out: Growth inhibition %
Description: as §1

UACC-62 = assay: NCI-60 one-dose screen; settings: Homo sapiens; UACC-62, Melanoma panel; single dose 10^−5 M; read-out: Growth inhibition %
Description: as §1

MDA-MB-231/ATCC = assay: NCI-60 one-dose screen; settings: Homo sapiens, Breast Cancer panel, single dose 10^−5 M, read-out: Growth inhibition %
Description: as §1

SNB-19 = assay: NCI-60 one-dose screen; settings: Homo sapiens; SNB-19, CNS Cancer panel; single dose 10^−5 M; read-out: Growth inhibition %
Description: as §1

HOP-62 = assay: NCI-60 one-dose screen; settings: Homo sapiens; HOP-62, Non-small cell lung panel; single dose 10^−5 M; read-out: Growth inhibition %
Description: as §1

OVCAR-8 = assay: NCI-60 one-dose screen; settings: Homo sapiens; OVCAR-8, Ovarian Cancer panel; single dose 10^−5 M; read-out: Growth inhibition %
Description: as §1

HCC-2998 = assay: NCI-60 one-dose screen; settings: Homo sapiens; HCC-2998, Colon Cancer panel; single dose 10^−5 M; read-out: Growth inhibition %
Description: as §1

NCI-H226 = assay: NCI-60 one-dose screen; settings: Homo sapiens; NCI-H226, Non-small cell lung panel; single dose 10^−5 M; read-out: Growth inhibition %
Description: as §1

T-47D = assay: NCI-60 one-dose screen; settings: Homo sapiens, T47D, Breast Cancer panel, single dose 10^−5 M, read-out: Growth inhibition %
Description: as §1

SF-295 = assay: NCI-60 one-dose screen; settings: Homo sapiens; SF-295, CNS Cancer panel; single dose 10^−5 M; read-out: Growth inhibition %
Description: as §1

COLO 205 = assay: NCI-60 one-dose screen; settings: Homo sapiens; COLO 205, Colon Cancer panel; single dose 10^−5 M; read-out: Growth inhibition %
Description: as §1

DU-145 = assay: NCI-60 one-dose screen; settings: Homo sapiens; DU-145, Prostate Cancer panel; single dose 10^−5 M; read-out: Growth inhibition %
Description: as §1

UO-31 = assay: NCI-60 one-dose screen; settings: Homo sapiens; UO-31, Renal Cancer panel; single dose 10^−5 M; read-out: Growth inhibition %
Description: as §1

SK-MEL-2 = assay: NCI-60 one-dose screen; settings: Homo sapiens; SK-MEL-2, Melanoma panel; single dose 10^−5 M; read-out: Growth inhibition %
Description: as §1

ACHN = assay: NCI-60 one-dose screen; settings: Homo sapiens, Renal Cancer panel, single dose 10^−5 M, read-out: Growth inhibition %
Description: as §1

SK-MEL-5 = assay: NCI-60 one-dose screen; settings: Homo sapiens; SK-MEL-5, Melanoma panel; single dose 10^−5 M; read-out: Growth inhibition %
Description: as §1

RXF 393 = assay: NCI-60 one-dose screen; settings: Homo sapiens; RXF 393, Renal Cancer panel; single dose 10^−5 M; read-out: Growth inhibition %
Description: as §1

U251 = assay: NCI-60 one-dose screen; settings: Homo sapiens, U-251; U251, CNS Cancer panel; single dose 10^−5 M; read-out: Growth inhibition %
Description: as §1

SNB-75 = assay: NCI-60 one-dose screen; settings: Homo sapiens; SNB-75, CNS Cancer panel; single dose 10^−5 M; read-out: Growth inhibition %
Description: as §1

Structure (SMILES)	inhibition at 10 µM [1]	inhibition at 10 µM (OVCAR-4)	inhibition at 10 µM (SK-OV-3)	inhibition at 10 µM (SN12C)	inhibition at 10 µM (NCI/ADR-RES)	inhibition at 10 µM (MDA-MB-435)	inhibition at 10 µM (OVCAR-3)	inhibition at 10 µM (K-562)	inhibition at 10 µM (CAKI-1)	inhibition at 10 µM (OVCAR-5)	inhibition at 10 µM (NCI-H23)	inhibition at 10 µM (A549/ATCC)	inhibition at 10 µM (UACC-62)	inhibition at 10 µM (MDA-MB-231/ATCC)	inhibition at 10 µM (SNB-19)	inhibition at 10 µM (HOP-62)	inhibition at 10 µM (OVCAR-8)	inhibition at 10 µM (HCC-2998)	inhibition at 10 µM (NCI-H226)	inhibition at 10 µM (T-47D)	also measured
COc1cccc(CNc2c3ccccc3nc3ccccc23)c1OC [Compound 16, Acridin-9-yl-(2,3-dimethoxybenzyl)-amine]	63.9%	63.4%	34%	69.1%	66.8%	53.7%	34.9%	84.5%	66.3%	57%	67.6%	69.7%	48.7%	58.1%	64.5%	48.8%	60.8%	61.7%	48.4%	52.5%	inhibition at 10 µM (HOP-92): 102%; inhibition at 10 µM (SF-295): 67%; inhibition at 10 µM (COLO 205): 78.5%; inhibition at 10 µM (DU-145): 58.2%; inhibition at 10 µM (UO-31): 74.8%; inhibition at 10 µM (SK-MEL-2): 20.8%; inhibition at 10 µM (ACHN): 78.9%; inhibition at 10 µM (SK-MEL-5): 44.2%; inhibition at 10 µM (RXF 393): 70.1%; inhibition at 10 µM (U251): 65.5%; inhibition at 10 µM (SNB-75): 32%
COc1ccc2nc3ccccc3c(NCc3ccc(C)cc3)c2c1 [Compound 26, (2-Methoxyacridin-9-yl)-(4-methylbenzyl)-amine]	79.9%	81.5%	47.3%	76.4%	76.2%	57.8%	53.1%	97.3%	73.8%	66%	71.7%	80.7%	44.3%	66.4%	70.8%	61%	71.3%	158%	57.9%	69.4%	inhibition at 10 µM (SF-295): 76.4%; inhibition at 10 µM (COLO 205): 141%; inhibition at 10 µM (DU-145): 78.4%; inhibition at 10 µM (UO-31): 86.7%; inhibition at 10 µM (SK-MEL-2): 30%; inhibition at 10 µM (ACHN): 83.7%; inhibition at 10 µM (SK-MEL-5): 65.6%; inhibition at 10 µM (RXF 393): 93.8%; inhibition at 10 µM (U251): 84.7%; inhibition at 10 µM (SNB-75): 53.4%
COc1ccc(CNc2c3ccccc3nc3ccc(OC)cc23)cc1 [Compound 27, (2-Methoxyacridin-9-yl)-(4-methoxybenzyl)-amine]	87.9%	81.6%	52.9%	79.2%	83.8%	81%	59.6%	99.7%	80.1%	69.3%	78.6%	85.4%	57.4%	76.4%	77.3%	65.9%	74.6%	158%	66.2%	65.8%	inhibition at 10 µM (SF-295): 80.6%; inhibition at 10 µM (COLO 205): 151%; inhibition at 10 µM (DU-145): 80%; inhibition at 10 µM (UO-31): 93.8%; inhibition at 10 µM (SK-MEL-2): 59.1%; inhibition at 10 µM (ACHN): 89.8%; inhibition at 10 µM (SK-MEL-5): 88.9%; inhibition at 10 µM (RXF 393): 103%; inhibition at 10 µM (U251): 83.9%; inhibition at 10 µM (SNB-75): 72.6%
COc1ccc2nc3ccccc3c(NCc3ccc(Cl)cc3)c2c1 [Compound 29, (4-Chlorobenzyl)-(2-methoxyacridin-9-yl)-amine]	93.3%	75.5%	36%	77.9%	77.1%	75.9%	49%	130%	78.6%	73.5%	71.7%	76.4%	35.2%	75.7%	73.6%	57.6%	70.3%	188%	51.2%	50.7%	inhibition at 10 µM (SF-295): 74.2%; inhibition at 10 µM (COLO 205): 162%; inhibition at 10 µM (DU-145): 78.5%; inhibition at 10 µM (UO-31): 98.1%; inhibition at 10 µM (SK-MEL-2): 28.7%; inhibition at 10 µM (ACHN): 82.9%; inhibition at 10 µM (SK-MEL-5): 88.3%; inhibition at 10 µM (RXF 393): 124%; inhibition at 10 µM (U251): 97.5%; inhibition at 10 µM (SNB-75): 42.4%
